Data taken from PubChem BioAssay (NCI).
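Cultured in 96-well plates, cells were exposed to test compound for 48 hours across five concentrations. GI50: concentration for 50% inhibition of growth. The concentration for full growth arrest is given as TGI.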

Tests used:
Experiment in all cases: NCI anticancer screen, dose series, 48 h
DU-145 prostate = system: DU-145 prostate
HS 578T breast = system: HS 578T breast
HCT-116 colon = system: HCT-116 colon
KM12 colon = system: KM12 colon
SF-539 CNS = system: SF-539 CNS
CCRF-CEM leukemia = system: CCRF-CEM leukemia
SK-MEL-5 melanoma = system: SK-MEL-5 melanoma
HCT-15 colon = system: HCT-15 colon
SNB-78 CNS = system: SNB-78 CNS
786-0 renal = system: 786-0 renal
DLD-1 colon = system: DLD-1 colon

Row | Structure (SMILES) | GI50 (DU-145 prostate) [µM] | TGI (DU-145 prostate) [µM] | GI50 (HS 578T breast) [µM] | TGI (HS 578T breast) [µM] | GI50 (HCT-116 colon) [µM] | TGI (HCT-116 colon) [µM] | GI50 (KM12 colon) [µM] | TGI (KM12 colon) [µM] | GI50 (SF-539 CNS) [µM] | TGI (SF-539 CNS) [µM] | GI50 (CCRF-CEM leukemia) [µM] | TGI (CCRF-CEM leukemia) [µM] | GI50 (SK-MEL-5 melanoma) [µM] | TGI (SK-MEL-5 melanoma) [µM] | GI50 (HCT-15 colon) [µM] | TGI (HCT-15 colon) [µM] | GI50 (SNB-78 CNS) [µM] | TGI (SNB-78 CNS) [µM] | TGI (786-0 renal) [µM] | TGI (DLD-1 colon) [µM]
1 | Cc1cc(N2CCCCC2)nc(NCc2cc(Nc3ccnc4cc(Cl)ccc34)ccc2F)n1 | 1.49 | 3.14 | 2.03 | 4.62 | 1.64 | 3.5 | 1.69 | 3.29 | 1.58 | 3.04 | 0.921 | 4.33 | 1.05 | 2.25 | 1.84 | 3.8 | – | – | – | –
2 | CN(C)C=O.CN(C)C=O.CN1C(C(=O)Nc2ccccn2)=C([O-])c2ccccc2S1(=O)=O.CN1C(C(=O)Nc2ccccn2)=C([O-])c2ccccc2S1(=O)=O.[Cu+2] | – | – | – | – | – | > 100 | – | > 100 | – | > 100 | – | – | – | 36.8 | – | > 100 | 64.3 | > 100 | > 100 | –
3 | COc1ccc2c(c1)C(=O)c1c-2n(CCCCl)c(=O)c2cc([N+](=O)[O-])ccc12 | 0.0361 | > 100 | > 68.9 | > 100 | – | 0.737 | 0.271 | – | 0.11 | 0.456 | < 0.01 | 0.212 | 0.498 | 2.07 | 0.0575 | > 100 | – | – | 0.159 | –
4 | NS(=O)(=O)c1ccc(C(=O)O)cc1 | – | > 100 | – | > 100 | – | > 100 | – | > 100 | – | – | – | > 100 | – | > 100 | – | > 100 | – | – | > 100 | –
5 | Cc1nc2ccccc2c(=O)n1Nc1ccc(C(=O)O)cc1 | – | – | – | – | – | > 100 | – | > 100 | – | > 100 | – | > 100 | – | > 100 | – | > 100 | – | > 100 | – | > 100
6 | O=C(O)\C=C/C=C/C=C/C=C/C(=O)O | – | – | – | – | – | > 100 | – | > 100 | – | > 100 | – | > 100 | – | > 100 | – | > 100 | – | > 100 | > 100 | > 100
7 | O=C1CC(c2ccccc2)NCCCCN2CC(CN1)C(C(O)c1ccccc1)C2=O (stereo not drawn) | – | > 100 | – | > 100 | – | > 100 | – | > 100 | – | > 100 | – | > 100 | – | > 100 | – | > 100 | – | – | > 100 | –
8 | Nc1ccc([As](=O)(O)O)cc1 | – | > 100 | – | > 100 | – | > 100 | – | > 100 | – | > 100 | – | > 100 | – | > 100 | – | > 100 | – | – | > 100 | –
9 | Cc1cccc(NC(N)=S)c1 | – | – | – | – | – | > 100 | – | > 100 | – | > 100 | – | > 100 | – | – | – | > 100 | – | > 100 | – | > 100
10 | O=C(Nc1ccc(-n2ccc3c(NC(=O)c4ccccc4)ncnc32)cc1)Nc1ccc(Cl)c(C(F)(F)F)c1 | 2.12 | 4.61 | 1.27 | 4.61 | 1.47 | 2.96 | 1.62 | 3.79 | 0.654 | 3.9 | 0.806 | 3.73 | 2.43 | 11.3 | 0.765 | 2.19 | – | – | – | –
11 | CC1(C)CCc2cc3c(cc2O1)OC(C)(C)CC3=O | – | – | – | – | – | > 100 | – | > 100 | – | > 100 | – | > 100 | – | 52.2 | – | > 100 | – | – | – | > 100
12 | CC(C)(c1ccccc1)c1ccc(Oc2ccc3c(c2)-c2nc-3nc3[nH]c(nc4nc(nc5[nH]c(n2)c2ccc(Oc6ccc(C(C)(C)c7ccccc7)cc6)cc52)-c2cc(Oc5ccc(C(C)(C)c6ccccc6)cc5)ccc2-4)c2ccc(Oc4ccc(C(C)(C)c5ccccc5)cc4)cc32)cc1 | – | – | – | – | – | > 100 | – | > 100 | – | > 100 | – | > 100 | – | > 100 | – | – | – | > 100 | > 100 | > 100
13 | CCc1cc(C)cc2[n+]1CC=C2C | – | – | – | – | – | – | – | > 100 | – | > 100 | – | – | – | > 100 | – | – | – | > 100 | > 100 | > 100
14 | COc1ccc(C(=O)NNC(=O)c2nsc3ccccc23)cc1 | – | – | – | – | – | > 100 | – | > 100 | – | > 100 | – | > 100 | – | > 100 | – | > 100 | – | > 100 | – | –
